# Patent publication US20110214196A1, “DEVELOPMENT OF HERBICIDE-RESISTANT GRASS SPECIES” (University of Georgia Research Foundation, priority 2008, published 2011)
# What was measured:
# [1] = tested on: Mauna Kea line regenerated from tissue culture (TC); assay: Whole plant greenhouse dose-response, Segment herbicide (Example 8); format: in vivo, seashore paspalum (Paspalum vaginatum)
# Method: (§1) Sethoxydim-resistant plants regenerated from a sethoxydim-resistant cell line, Line A, were tested for resistance at the whole plant level in a dose-response experiment conducted in a greenhouse. In this experiment, Line A was compared to two herbicide-susceptible controls; the original parent line, Mauna Kea (PT); and a Mauna Kea line regenerated from tissue culture (TTC). Plants were transplanted to Cone-tainers™ measuring 4×14 cm and tapering to 1 cm (Stuewe and Sons Inc., Corvallis, Oreg.) containing a 1:1 mix of Fafard® 3B mix and sand and placed on benches under sodium lights in a greenhouse with a 16 hour photoperiod maintained at 27/32° C. day/night for two weeks prior to treatment applications. Each of the three genotypes, Line A, PT and TC were treated with 0, 50, 100, 200, 400, 800, 1600, and 3200 g ai ha^−1 rates of sethoxydim using Segment™ herbicide (BASF Corp., Florham Park, N.J.). All herbicide rates were applied at a spray volume of 1871 ha^−1 in an experimental spray chamber, and after drying, returned to the greenhouse bench and maintained under the conditions described above. Visual estimates of crop injury were recorded at 7, 14, 21, and 28 days after treatment (DAT) using a scale of 0 to 100, where 0 equals no injury and 100 equals complete death. At 42 days after treatment, the above ground portion of all plants was harvested, dried for 48 hours at a temperature of 50° C., and weighed to determine plant dry weight. Treatments were arranged in a randomized complete block design. Only two replications of TCC were possible due to limited plant materials; otherwise four replications were used for the other two genotypes (PT and Line A). Data were first analyzed using a two-way analysis of variance and subsequently analyzed within herbicide rate. Differences among genotype means at each herbicide rate were determined using Fisher's Least Significant Difference (LSD).
# [2] = tested on: original parent line, Mauna Kea (PT); assay: as above; format: in vivo, seashore paspalum (Paspalum vaginatum)
# Method: as §1
# [3] = tested on: sethoxydim-resistant Line A; assay: as above; format: in vivo, seashore paspalum (Paspalum vaginatum)
# Method: as §1
# [4] = tested on: Large crabgrass (Digitaria sanguinalis); assay: Large crabgrass dose response study, plants from sod farm seed; format: in vivo
# Method: Plants were grown from seed collected from a turfgrass sod farm near where sethoxydim had been continuously used for twelve years. Seeds were planted in 250 mL styrofoam cups with a potting mixture of pure sand in a glasshouse with supplemental lighting (300 uE/m2/s) and 30/25 temperature. Plants were watered once daily and fertilized once a week. Large crabgrass plants were treated with herbicides when 3-5 cm tall in a dose response study. Four herbicides (sethoxydim, fluazifop, clethodim, and pinoxaden) were applied at […]. Plant injury was observed 7 and 14 DAT. The experimental design consisted of a randomized complete block design with three replications. The experiment was replicated in time.
# [5] = at rates equal to or greater than 800 g ai ha^−1
# [6] = at rates of 200 g ai ha^−1, scale of 0 to 100
compound,measurement,setting,value
"CCC/C(=N\OCC)C1=C(O)CC(CC(C)SCC)CC1=O (centres unmarked) [sethoxydim, 2-[1-(ethoxyimino)-butyl]-5-[2-(ethylthio)propyl]-3-hydroxy-2-cylohexen-1-one]",LD50,[1],276 g ai ha^1
same,Plant Injury,"[1]; 50 g a.i. ha^−1, 7 DAT",4.5a %
same,Plant Injury,"[1]; 50 g a.i. ha^−1, 14 DAT",12.5ab %
same,Plant Injury,"[1]; 50 g a.i. ha^−1, 21 DAT",2.5a %
same,Plant Injury,"[1]; 50 g a.i. ha^−1, 28 DAT",0.0a %
same,Dry Weight,"[1]; 50 g a.i. ha^−1, 42 DAT",2.2a grams
same,Plant Injury,"[1]; 100 g a.i. ha^−1, 7 DAT",18.3b %
same,Plant Injury,"[1]; 100 g a.i. ha^−1, 14 DAT",25.0b %
same,Plant Injury,"[1]; 100 g a.i. ha^−1, 21 DAT",20.0a %
same,Plant Injury,"[1]; 100 g a.i. ha^−1, 28 DAT",7.5a %
same,Dry Weight,"[1]; 100 g a.i. ha^−1, 42 DAT",1.6ab grams
same,Plant Injury,"[1]; 200 g a.i. ha^−1, 7 DAT",16.7b %
same,Plant Injury,"[1]; 200 g a.i. ha^−1, 14 DAT",30.0b %
same,Plant Injury,"[1]; 200 g a.i. ha^−1, 21 DAT",40.0b %
same,Plant Injury,"[1]; 200 g a.i. ha^−1, 28 DAT",32.5b %
same,Dry Weight,"[1]; 200 g a.i. ha^−1, 42 DAT",0.4b grams
same,Plant Injury,"[1]; 400 g a.i. ha^−1, 7 DAT",30.8b %
same,Plant Injury,"[1]; 400 g a.i. ha^−1, 14 DAT",82.5b %
same,Plant Injury,"[1]; 400 g a.i. ha^−1, 21 DAT",80.0b %
same,Plant Injury,"[1]; 400 g a.i. ha^−1, 28 DAT",82.5b %
same,Dry Weight,"[1]; 400 g a.i. ha^−1, 42 DAT",0.1b grams
same,Plant Injury,"[1]; 800 g a.i. ha^−1, 7 DAT",60.0c %
same,Plant Injury,"[1]; 800 g a.i. ha^−1, 14 DAT",87.5b %
same,Plant Injury,"[1]; 800 g a.i. ha^−1, 21 DAT",95.0b %
same,Plant Injury,"[1]; 800 g a.i. ha^−1, 28 DAT",100.0c %
same,Dry Weight,"[1]; 800 g a.i. ha^−1, 42 DAT",0.1b grams
same,Plant Injury,"[1]; 1600 g a.i. ha^−1, 7 DAT",43.3b %
same,Plant Injury,"[1]; 1600 g a.i. ha^−1, 14 DAT",100.0c %
same,Plant Injury,"[1]; 1600 g a.i. ha^−1, 21 DAT",100.0c %
same,Plant Injury,"[1]; 1600 g a.i. ha^−1, 28 DAT",100.0b %
same,Dry Weight,"[1]; 1600 g a.i. ha^−1, 42 DAT",0.1b grams
same,Plant Injury,"[1]; 3200 g a.i. ha^−1, 7 DAT",46.7b %
same,Plant Injury,"[1]; 3200 g a.i. ha^−1, 14 DAT",100.0b %
same,Plant Injury,"[1]; 3200 g a.i. ha^−1, 21 DAT",100.0b %
same,Plant Injury,"[1]; 3200 g a.i. ha^−1, 28 DAT",100.0b %
same,Dry Weight,"[1]; 3200 g a.i. ha^−1, 42 DAT",0.1b grams
same,injury score,[1]; [5],≥ 80%
same,injury score,[1]; [6],≥ 30
same,LD50,[2],189 g ai ha^1
same,Plant Injury,"[2]; 50 g a.i. ha^−1, 7 DAT",5.2a %
same,Plant Injury,"[2]; 50 g a.i. ha^−1, 14 DAT",6.2b %
same,Plant Injury,"[2]; 50 g a.i. ha^−1, 21 DAT",5.0a %
same,Plant Injury,"[2]; 50 g a.i. ha^−1, 28 DAT",1.2a %
same,Dry Weight,"[2]; 50 g a.i. ha^−1, 42 DAT",1.6a grams
same,Plant Injury,"[2]; 100 g a.i. ha^−1, 7 DAT",7.9b %
same,Plant Injury,"[2]; 100 g a.i. ha^−1, 14 DAT",22.5b %
same,Plant Injury,"[2]; 100 g a.i. ha^−1, 21 DAT",13.8a %
same,Plant Injury,"[2]; 100 g a.i. ha^−1, 28 DAT",6.2a %
same,Dry Weight,"[2]; 100 g a.i. ha^−1, 42 DAT",1.3b grams
same,Plant Injury,"[2]; 200 g a.i. ha^−1, 7 DAT",20.8b %
same,Plant Injury,"[2]; 200 g a.i. ha^−1, 14 DAT",55.0b %
same,Plant Injury,"[2]; 200 g a.i. ha^−1, 21 DAT",52.5b %
same,Plant Injury,"[2]; 200 g a.i. ha^−1, 28 DAT",43.8b %
same,Dry Weight,"[2]; 200 g a.i. ha^−1, 42 DAT",0.8b grams
same,Plant Injury,"[2]; 400 g a.i. ha^−1, 7 DAT",30.8b %
same,Plant Injury,"[2]; 400 g a.i. ha^−1, 14 DAT",67.5b %
same,Plant Injury,"[2]; 400 g a.i. ha^−1, 21 DAT",67.5b %
same,Plant Injury,"[2]; 400 g a.i. ha^−1, 28 DAT",72.5b %
same,Dry Weight,"[2]; 400 g a.i. ha^−1, 42 DAT",0.2b grams
same,Plant Injury,"[2]; 800 g a.i. ha^−1, 7 DAT",35.0b %
same,Plant Injury,"[2]; 800 g a.i. ha^−1, 14 DAT",85.0b %
same,Plant Injury,"[2]; 800 g a.i. ha^−1, 21 DAT",85.0b %
same,Plant Injury,"[2]; 800 g a.i. ha^−1, 28 DAT",88.8b %
same,Dry Weight,"[2]; 800 g a.i. ha^−1, 42 DAT",0.3b grams
same,Plant Injury,"[2]; 1600 g a.i. ha^−1, 7 DAT",40.8b %
same,Plant Injury,"[2]; 1600 g a.i. ha^−1, 14 DAT",90.0b %
same,Plant Injury,"[2]; 1600 g a.i. ha^−1, 21 DAT",92.5b %
same,Plant Injury,"[2]; 1600 g a.i. ha^−1, 28 DAT",92.5b %
same,Dry Weight,"[2]; 1600 g a.i. ha^−1, 42 DAT",0.2b grams
same,Plant Injury,"[2]; 3200 g a.i. ha^−1, 7 DAT",37.9b %
same,Plant Injury,"[2]; 3200 g a.i. ha^−1, 14 DAT",100.0b %
same,Plant Injury,"[2]; 3200 g a.i. ha^−1, 21 DAT",100.0b %
same,Plant Injury,"[2]; 3200 g a.i. ha^−1, 28 DAT",100.0b %
same,Dry Weight,"[2]; 3200 g a.i. ha^−1, 42 DAT",0.1b grams
same,injury score,[2]; [5],≥ 80%
same,injury score,[2]; [6],≥ 30
same,LD50,[3],> 3200 g ai ha^1
same,Plant Injury,"[3]; 50 g a.i. ha^−1, 7 DAT",2.9a %
same,Plant Injury,"[3]; 50 g a.i. ha^−1, 14 DAT",0.0b %
same,Plant Injury,"[3]; 50 g a.i. ha^−1, 21 DAT",1.2a %
same,Plant Injury,"[3]; 50 g a.i. ha^−1, 28 DAT",0.0a %
same,Dry Weight,"[3]; 50 g a.i. ha^−1, 42 DAT",1.7a grams
same,Plant Injury,"[3]; 100 g a.i. ha^−1, 7 DAT",0.8a %
same,Plant Injury,"[3]; 100 g a.i. ha^−1, 14 DAT",1.2a %
same,Plant Injury,"[3]; 100 g a.i. ha^−1, 21 DAT",3.8a %
same,Plant Injury,"[3]; 100 g a.i. ha^−1, 28 DAT",2.5a %
same,Dry Weight,"[3]; 100 g a.i. ha^−1, 42 DAT",2.0a grams
same,Plant Injury,"[3]; 200 g a.i. ha^−1, 7 DAT",1.7a %
same,Plant Injury,"[3]; 200 g a.i. ha^−1, 14 DAT",0.0a %
same,Plant Injury,"[3]; 200 g a.i. ha^−1, 21 DAT",0.0a %
same,Plant Injury,"[3]; 200 g a.i. ha^−1, 28 DAT",0.0a %
same,Dry Weight,"[3]; 200 g a.i. ha^−1, 42 DAT",1.9a grams
same,Plant Injury,"[3]; 400 g a.i. ha^−1, 7 DAT",3.8a %
same,Plant Injury,"[3]; 400 g a.i. ha^−1, 14 DAT",0.0a %
same,Plant Injury,"[3]; 400 g a.i. ha^−1, 21 DAT",2.5a %
same,Plant Injury,"[3]; 400 g a.i. ha^−1, 28 DAT",0.0a %
same,Dry Weight,"[3]; 400 g a.i. ha^−1, 42 DAT",2.0a grams
same,Plant Injury,"[3]; 800 g a.i. ha^−1, 7 DAT",1.2a %
same,Plant Injury,"[3]; 800 g a.i. ha^−1, 14 DAT",1.2a %
same,Plant Injury,"[3]; 800 g a.i. ha^−1, 21 DAT",3.8a %
same,Plant Injury,"[3]; 800 g a.i. ha^−1, 28 DAT",1.2a %
same,Dry Weight,"[3]; 800 g a.i. ha^−1, 42 DAT",2.0a grams
same,Plant Injury,"[3]; 1600 g a.i. ha^−1, 7 DAT",4.3a %
same,Plant Injury,"[3]; 1600 g a.i. ha^−1, 14 DAT",0.0a %
same,Plant Injury,"[3]; 1600 g a.i. ha^−1, 21 DAT",3.8a %
same,Plant Injury,"[3]; 1600 g a.i. ha^−1, 28 DAT",1.2a %
same,Dry Weight,"[3]; 1600 g a.i. ha^−1, 42 DAT",1.5a grams
same,Plant Injury,"[3]; 3200 g a.i. ha^−1, 7 DAT",8.3a %
same,Plant Injury,"[3]; 3200 g a.i. ha^−1, 14 DAT",7.5a %
same,Plant Injury,"[3]; 3200 g a.i. ha^−1, 21 DAT",5.5a %
same,Plant Injury,"[3]; 3200 g a.i. ha^−1, 28 DAT",4.2b %
same,Dry Weight,"[3]; 3200 g a.i. ha^−1, 42 DAT",1.6a grams
same,maximum injury score observed,[3]; at 3200 g ai ha^−1,7.5%
same,resistance or susceptibility of this population of large crabgrass,[4]; conclusion from ED50 values,resistant
same,ED50 of resistant (R) population relative to wild type (S) population,"[4]; crabgrass, FIG. 17",approximately 10 times
same,effective dose required to cause 50% injury (ED50),"[4]; large crabgrass grown from sod farm seed, treated when 3-5 cm tall",245±37 g ai/ha
